Common to all, as to assay type: cell-based
One test concerns Botrytis cinerea. Nature of the test: Microtest with mixtures of active compounds, grey mold (Botrci). The settings on record: single compound.
The subject of the next test is Pyricularia oryzae. The settings on record: Pyrior, single compound.
The subject of the next test is Phytophthora infestans. The settings on record: Phytin, single compound.
Another test concerns Septoria tritici. Nature of the test: Microtest with mixtures of active compounds, leaf blotch on wheat (Septtr).
In test [1] the test system is Pseudomonas aeruginosa ATCC 27853. Nature of the test: Minimum Inhibitory Concentration (MIC) test, broth microdilution. The settings on record: ATCC 27853 / DSM 1117, IsoSensitest broth, 24 hours at 37°C, no growth (OD smaller than 0.1).
The test system of test [2] is Staphylococcus aureus ATCC 29213. Described as above. The settings on record: ATCC 29213 / DSM 2569, IsoSensitest broth, 24 hours at 37°C, no growth (OD smaller than 0.1).

≈ marks a conversion by molar mass, not a printed value. Like-named read-outs stand apart in the source and are kept apart here.

For `Fc1ccc([C@]2(Cn3cncn3)O[C@H]2c2ccccc2Cl)cc1` (racemic) [Epoxiconazole], the Observed efficacy amounted to 34% in the test with Botrytis cinerea (0.063 ppm), 5% in the test on Pyricularia oryzae (0.25 ppm) and 11% with Phytophthora infestans (0.25 ppm).
With `Fc1ccc([C@@]2(Cn3ncnc3S)O[C@@H]2c2ccccc2Cl)c(F)c1` (relative stereo) [Azole*, 2-[rel-(2S;3R)-3-(2-chlorophenyl)-2-(2,4-difluorophenyl)-oxiranylmethyl]-2H-[1,2,4]triazole-3-thiol], the Observed efficacy in the test on Septoria tritici (0.25 ppm) is given as 4%; in the test on Septoria tritici (4 ppm), 40%; in the test with Botrytis cinerea (1 ppm) it was 15%; in the test with Pyricularia oryzae (16 ppm), 65%; with Phytophthora infestans (4 ppm) it was 20%.
By MIC is commonly meant the lowest concentration found to suppress growth. A lower MIC goes with inhibition by little substance. `CC(=O)[O-].CCCCn1cc[n+](CCCC)c1` [C2, 1,3-Dibutylimidazolium acetate]: the figures for the MIC in test [1] and in test [2] were 4100 µg/mL and 2050 µg/mL, respectively.
Regarding `CC1=C(C(=O)O)N2C(=O)[C@@H](NC(=O)[C@H](N)c3ccccc3)[C@H]2SC1` [Control 1, Cephalexine], the MIC in test [1] is above 4100 µg/mL; in test [2], 4 µg/mL (≈ 11.5 µM).
The matching figures for `CCn1cc(C(=O)O)c(=O)c2ccc(C)nc21` [Control 3, Nalidixic acid]: 1020 µg/mL (≈ 4410 µM) and 64 µg/mL (≈ 276 µM).
On to `Cn1cc(C(=O)Nc2ccccc2-c2cc(F)c(F)c(F)c2)c(C(F)F)n1` [Fluxapyroxad], for which the Observed efficacy with Botrytis cinerea (0.016 ppm) is on record as 13%; with Phytophthora infestans (0.063 ppm), 12%.
Take `COC(=O)N(OC)c1ccccc1COc1ccn(-c2ccc(Cl)cc2)n1` [Pyraclostrobin]: the Observed efficacy worked out at 38% in the test on Septoria tritici (Septtr, single compound, 0.001 ppm); 0% in the test with Botrytis cinerea (0.016 ppm); 24% in the test with Phytophthora infestans (0.063 ppm).

(Values after patent publication EP2688405B1 (priority 2011, dated 2012).)
